Here are results for 11 molecules from ChEMBL document CHEMBL1124372, “Thienothiopyran-2-sulfonamides: novel topically active carbonic anhydrase inhibitors for the treatment of glaucoma” (J Med Chem, 1989).

Several values for one entry are separate records, joined by “and”; a condition that tells them apart may be missing. Identical values can stand only once.

Series [1] is described as follows: The aqueous solubility in 2% solution was determined; soluble. The class given is physicochemical. The settings on record: buffer.
The next series is filed under the species Oryctolagus cuniculus. The series can be described thus: Maximum fall in ocular hypertension in the right eye of albino rabbits. The class given is functional.
Series [2] addresses T1, Carbonic anhydrase 2 (Homo sapiens, UniProt P00918).
Series [3] can be described thus: Binding of 10 phosphate buffer. It counts as protein assay. The settings on record: Bos taurus.
Series [4] concerns the target T1, Carbonic anhydrase 2. The source holds these as a separate data set.
For series [5], the target named is T1, Carbonic anhydrase 2. This is another data set of the same source.
The nature of series [6]: The aqueous solubility in 2% solution was determined; insoluble. Particulars: buffer. The class given is physicochemical.
Series [7] in a line: The aqueous solubility in 2% (+ = soluble, - = insoluble) solution was determined. The class given is physicochemical. The settings on record: buffer.

On to `CC(C)CN[C@@H]1CCS(=O)(=O)c2sc(S(N)(=O)=O)cc21.Cl`, for which the Aqueous solubility entry in series [1] was “Soluble”. For the same molecule, in the series filed under Oryctolagus cuniculus, the Activity is -1.3 mmHg.
As usually defined, the IC50 is the concentration that inhibits the measured activity by half. A word on the Ki: it is a dissociation constant, usually derived from enzyme kinetics or from competition with a known ligand. Low values mean tighter binding, high ones weaker binding. In the case of `Cl.NC1CCS(=O)(=O)c2sc(S(N)(=O)=O)cc21` (stereo not drawn), the IC50 on Carbonic anhydrase 2 [2] was 3.2 nM; at Carbonic anhydrase 2 [5], 9.2 nM. The molecule further returned a Binding in series [3] of 32.1%. Besides, the Aqueous solubility result in series [1] is “Soluble”. Also, in the series listed under Oryctolagus cuniculus, the Activity was -3.3 mmHg. For the same molecule, the affinity at Carbonic anhydrase 2 [4], expressed as Ki, was 3.7 nM.
Consider `NS(=O)(=O)c1cc2c(s1)S(=O)(=O)CCC2O` (stereo not drawn), for which the Binding in series [3] was 1.9%. The Aqueous solubility entry in series [1] is “Soluble”. This molecule also showed an Activity in the series filed under Oryctolagus cuniculus of -6.9 mmHg.
Turning to `CC(C)CN[C@H]1CCS(=O)(=O)c2sc(S(N)(=O)=O)cc21` [SEZOLAMIDE], in series [1], the Aqueous solubility result is given as “Soluble”. This molecule returned an Activity in the series filed under Oryctolagus cuniculus of -4.3 mmHg.
Turning to `CCCNC1CCS(=O)(=O)c2sc(S(N)(=O)=O)cc21.Cl` (stereo not drawn), the values for the IC50 against Carbonic anhydrase 2 [2] and on Carbonic anhydrase 2 [5] were 1.5 nM and 9.2 nM, respectively. This molecule showed a Binding in series [3] of 19.8%. In addition, the Activity in the series filed under Oryctolagus cuniculus was -8.7 mmHg. Besides, in series [6], the Aqueous solubility entry is “Insoluble”. The Ki on Carbonic anhydrase 2 [4] was 1.1 nM.
In the case of `CCCCNC1CCS(=O)(=O)c2sc(S(N)(=O)=O)cc21.Cl` (stereo not drawn), the IC50 against Carbonic anhydrase 2 [2] is 2.3 nM; on Carbonic anhydrase 2 [5] it was 12.4 nM. The molecule also displayed a Binding in series [3] of 25.6%. This molecule also registered an Activity in the series listed under Oryctolagus cuniculus of -5.7 mmHg. Besides, in series [6], the Aqueous solubility entry is “Insoluble”. Besides, the Ki on Carbonic anhydrase 2 [4] was 1.8 nM.
As for `CC(C)CN[C@H]1CCS(=O)(=O)c2sc(S(N)(=O)=O)cc21`, in series [3], the Binding was 12.3% and 12.8%.
`CCN(CC)C1CCS(=O)(=O)c2sc(S(N)(=O)=O)cc21.Cl` (stereo not drawn): the IC50 at Carbonic anhydrase 2 [2] was 12.3 nM; against Carbonic anhydrase 2 [5] it was 70 nM. This molecule also returned a Binding in series [3] of 9%. Also, the Aqueous solubility result in series [1] was “Soluble”. Besides, in the series listed under Oryctolagus cuniculus, the Activity was -5.3 mmHg. The molecule further had a Ki on Carbonic anhydrase 2 [4] of 9.3 nM.
For `CNC1CCS(=O)(=O)c2sc(S(N)(=O)=O)cc21.Cl` (stereo not drawn), the Aqueous solubility entry in series [7] is “Soluble”. The IC50 turned out to be 2.5 nM against Carbonic anhydrase 2 [2] and 13.9 nM at Carbonic anhydrase 2 [5]. This molecule also registered a Binding in series [3] of 23.7%. This molecule had an Activity in the series filed under Oryctolagus cuniculus of -3.3 mmHg. This molecule returned a Ki at Carbonic anhydrase 2 [4] of 2.3 nM.
Turning to `CC(C)CN[C@H]1CCS(=O)(=O)c2sc(S(N)(=O)=O)cc21.Cl` [SEZOLAMIDE HYDROCHLORIDE], the Aqueous solubility result in series [1] is on record as “Soluble”. In addition, in the series filed under Oryctolagus cuniculus, the Activity is -6.5 mmHg.
For the molecule `CCNC1CCS(=O)(=O)c2sc(S(N)(=O)=O)cc21.Cl` (stereo not drawn), the Binding in series [3] worked out at 29.2%. For the same molecule, the Aqueous solubility entry in series [1] is “Soluble”. In the series listed under Oryctolagus cuniculus, this molecule returned an Activity of -4.2 mmHg.
